The target in this data set is ATP-dependent translocase ABCB1 (P-glycoprotein) (Mus musculus, UniProt P21447). The data set can be described thus: TP_TRANSPORTER: inhibition of DOX efflux (DOX: 18? uM, XT-141: 100 uM) in P388/DOX cells. The data set is classed as functional, cell-based. To be noted: probe DOX (doxorubicin), read-out: Activity.
ATP-dependent translocase ABCB1 (P-glycoprotein), sequence (P21447 whole entry): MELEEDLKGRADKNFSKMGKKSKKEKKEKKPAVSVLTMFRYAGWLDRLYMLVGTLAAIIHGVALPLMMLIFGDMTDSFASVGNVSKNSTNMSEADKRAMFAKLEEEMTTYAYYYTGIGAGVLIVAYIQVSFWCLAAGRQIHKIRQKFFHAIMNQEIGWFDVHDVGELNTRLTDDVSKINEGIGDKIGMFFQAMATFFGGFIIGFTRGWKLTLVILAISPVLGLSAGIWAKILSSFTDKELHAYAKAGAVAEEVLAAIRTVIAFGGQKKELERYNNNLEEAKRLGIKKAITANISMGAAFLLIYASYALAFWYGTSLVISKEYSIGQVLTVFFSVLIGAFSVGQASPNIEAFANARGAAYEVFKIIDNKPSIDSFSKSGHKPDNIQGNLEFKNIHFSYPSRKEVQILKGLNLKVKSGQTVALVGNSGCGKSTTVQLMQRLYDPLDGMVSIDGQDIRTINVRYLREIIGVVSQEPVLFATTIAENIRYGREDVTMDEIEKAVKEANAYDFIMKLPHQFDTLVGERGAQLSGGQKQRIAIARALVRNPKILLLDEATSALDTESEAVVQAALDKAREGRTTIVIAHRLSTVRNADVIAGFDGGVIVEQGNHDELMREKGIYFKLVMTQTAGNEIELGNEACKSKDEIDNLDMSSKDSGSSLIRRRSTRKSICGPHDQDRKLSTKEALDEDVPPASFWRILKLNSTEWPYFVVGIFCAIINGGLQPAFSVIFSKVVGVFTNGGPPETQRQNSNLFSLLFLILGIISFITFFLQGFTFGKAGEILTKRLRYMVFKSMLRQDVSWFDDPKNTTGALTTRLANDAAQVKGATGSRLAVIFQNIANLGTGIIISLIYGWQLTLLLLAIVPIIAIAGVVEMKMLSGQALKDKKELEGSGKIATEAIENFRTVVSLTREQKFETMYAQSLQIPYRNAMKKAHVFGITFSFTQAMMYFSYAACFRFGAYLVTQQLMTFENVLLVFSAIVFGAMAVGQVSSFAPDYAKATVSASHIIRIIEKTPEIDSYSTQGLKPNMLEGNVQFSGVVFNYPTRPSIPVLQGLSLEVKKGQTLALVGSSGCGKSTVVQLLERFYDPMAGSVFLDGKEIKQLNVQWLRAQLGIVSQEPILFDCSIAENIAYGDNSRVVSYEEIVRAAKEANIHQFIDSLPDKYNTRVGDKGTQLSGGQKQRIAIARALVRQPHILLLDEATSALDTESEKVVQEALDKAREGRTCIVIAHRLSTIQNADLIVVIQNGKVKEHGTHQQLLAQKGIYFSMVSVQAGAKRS

Turning to `CCCn1c(=O)n(C)c(=O)c2c1ncn2CCCN(C)C`, the inhibition at 100 µM came out at 43%.
